Consider 40 molecules from patent publication US20250313569A1, “Pharmaceutical Compounds And Compositions As Modulators Of MAS-Related G-Protein Receptor X2” (Enanta Pharmaceuticals, Inc., priority 2024, published 2025).

The structures appear in SMILES notation.

One assay deals with T1, human MRGPRX2 (Homo sapiens, UniProt Q96LB1).
T1 construct: expressed in transfected cells; host or cells: HEK293
T1 sequence (Q96LB1 1-330): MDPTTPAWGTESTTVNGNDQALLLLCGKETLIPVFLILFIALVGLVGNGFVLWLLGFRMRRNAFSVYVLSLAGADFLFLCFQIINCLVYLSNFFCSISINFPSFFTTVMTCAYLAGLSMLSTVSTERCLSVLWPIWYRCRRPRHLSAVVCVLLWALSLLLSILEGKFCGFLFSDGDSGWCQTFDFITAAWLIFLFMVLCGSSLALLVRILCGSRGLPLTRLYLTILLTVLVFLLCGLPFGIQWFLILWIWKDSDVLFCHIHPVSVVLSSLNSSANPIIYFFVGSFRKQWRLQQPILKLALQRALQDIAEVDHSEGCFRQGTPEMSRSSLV
The experiment in a line: MRGPRX2 IP-1 Gq HTRF assay in HEK293 cells stably expressing human MRGPRX2, Cortistatin-14 at EC75. The format is cell-based. Conditions: 2 hours at 37° C., cellular IP-1. The protocol:
HEK293 cells stably expressing human MRGPRX2 were grown in Dulbecco's Modified Eagle Medium (DMEM) supplemented with 10% fetal bovine serum (FBS), 1% Glutamax, and 1 μg/mL of puromycin. Cells were maintained in a 37° C., 5% CO2 humidified incubator.
Cells were plated in a 384-well assay plate at a density of 20,000 cells per well overnight. Compounds were solubilized at 10 mM in DMSO and added as a 10-point curve using an ECHO acoustic liquid handler. On the day of the assay, Cortistatin-14 was diluted in assay buffer (provided by IP-One-Gq-HTRF kit purchased from Cisbio, 62IPAPEJ) and added to the assay plate at a final concentration corresponding to the predetermined EC75. Plates were incubated at 37° C. for 2 hours prior to addition of HTRF detection reagents per the manufacturer's instructions. The plates were read on a Perkin Elmer Envision plate reader. The HTRF ratio and cellular IP-1 levels were calculated. XLfit was used to calculate an EC50 value for each compound using a 4-parameter logistic curve fitting model. EC50 ranges are reported as follows: A<100 nM; B 0.1-1 μM; C>1 μM.
A general note: Time-resolved FRET reads energy transfer from a long-lived donor to a nearby acceptor.
By EC50 is commonly meant the concentration needed to bring the measured effect to its halfway point. A high value points to a less potent agent. `CC(C)(C)C(=O)N1C[C@@H](NC(=O)c2cccc(NS(C)(=O)=O)c2)C[C@@H](Nc2cc(C(F)(F)F)nc3ccc(Cl)cc23)C1` (racemic) [Example 15] registered an EC50 of 100 to 1000 nM.
Take `CC(C)(C)OC(=O)N1C[C@@H](NC(=O)c2cccc(NS(C)(=O)=O)c2)C[C@@H](Nc2cc(C(F)(F)F)nc3ccc(Cl)cc23)C1` [Example 6]: the EC50 is 100 to 1000 nM.
On the same count and under the same terms, with `CS(=O)(=O)Nc1cccc(C(=O)N[C@@H]2CNC[C@H](Nc3cc(C(F)(F)F)nc4ccc(Cl)cc34)C2)c1` [Example 7] the figure was more than 1000 nM; with `CNCC(=O)N1C[C@@H](NC(=O)c2cccc(NS(C)(=O)=O)c2)C[C@@H](Nc2cc(C(F)(F)F)nc3ccc(Cl)cc23)C1` [Example 12], 100 to 1000 nM.
Still for that read-out and setting: to `CN(C)CC(=O)N1C[C@@H](NC(=O)c2cccc(NS(C)(=O)=O)c2)C[C@@H](Nc2cc(C(F)(F)F)nc3ccc(Cl)cc23)C1` [Example 13] belongs 100 to 1000 nM.
Same read-out and setting: to `COCC(=O)N1C[C@@H](NC(=O)c2cccc(NS(C)(=O)=O)c2)C[C@@H](Nc2cc(C(F)(F)F)nc3ccc(Cl)cc23)C1` [Example 14] belongs less than 100 nM.
`CS(=O)(=O)Nc1cccc(C(=O)N[C@H]2CC(Nc3cc(C(F)(F)F)nc4ccc(Cl)cc34)CN(C(=O)C3CC3)C2)c1` (stereo partly shown) [Example 16] registered an EC50 of 100 to 1000 nM.
The same measure, in the same setting: with `CS(=O)(=O)Nc1cccc(C(=O)N[C@H]2CC(Nc3cc(C(F)(F)F)nc4ccc(Cl)cc34)CN(C(=O)C3CCC3)C2)c1` (stereo partly shown) [Example 17] the figure was 100 to 1000 nM.
As to `CS(=O)(=O)Nc1cccc(C(=O)N[C@H]2CC(N(C(=O)C3CC3)c3cc(C(F)(F)F)nc4ccc(Cl)cc34)CN(C(=O)C3CC3)C2)c1` (stereo partly shown) [Example 18], the EC50 was 100 to 1000 nM.
Same read-out and setting: to `CS(=O)(=O)Nc1cccc(C(=O)N[C@H]2CC(Nc3cc(C(F)(F)F)nc4ccc(Cl)cc34)CN(C(=O)c3cccnc3)C2)c1` (stereo partly shown) [Example 19] belongs 100 to 1000 nM; to `CS(=O)(=O)Nc1cccc(C(=O)N[C@H]2CC(Nc3cc(C(F)(F)F)nc4ccc(Cl)cc34)CN(C(=O)Nc3ccccc3)C2)c1` (stereo partly shown) [Example 20], 100 to 1000 nM.
The same measure, in the same setting: to `CC(=O)N1CC(Nc2cc(C(F)(F)F)nc3ccc(F)cc23)C[C@H](NC(=O)c2cccc(NS(C)(=O)=O)c2)C1` (stereo partly shown) [Example 21] belongs less than 100 nM; to `CC(=O)N1CC(Nc2cc(C(F)(F)F)nc3ccccc23)C[C@H](NC(=O)c2cccc(NS(C)(=O)=O)c2)C1` (stereo partly shown) [Example 22], 100 to 1000 nM.
Same read-out and setting: with `CC(=O)N1C[C@@H](NC(=O)c2ccc(F)cc2)C[C@@H](Nc2cc(C(F)(F)F)nc3ccc(Cl)cc23)C1` [Example 23] the figure was less than 100 nM; with `CC(=O)N1C[C@@H](NC(=O)c2ccc(F)c(F)c2)C[C@@H](Nc2cc(C(F)(F)F)nc3ccc(Cl)cc23)C1` [Example 26], 100 to 1000 nM; with `CC(=O)N1C[C@@H](NC(=O)c2ccc(F)cc2F)C[C@@H](Nc2cc(C(F)(F)F)nc3ccc(Cl)cc23)C1` [Example 27], 100 to 1000 nM.
In turn, `CC(=O)N1C[C@@H](NC(=O)c2cccc(S(C)(=O)=O)c2)C[C@@H](Nc2cc(C(F)(F)F)nc3ccc(Cl)cc23)C1` [Example 28] displayed an EC50 of less than 100 nM.
Take `CCn1cc(C(=O)N[C@H]2C[C@@H](Nc3cc(C(F)(F)F)nc4ccc(Cl)cc34)CN(C(C)=O)C2)cn1` [Example 31]: the EC50 was less than 100 nM.
Still for that read-out and setting: to `CC(=O)N1C[C@@H](NC(=O)c2cn(CC(F)(F)F)nn2)C[C@@H](Nc2cc(C(F)(F)F)nc3ccc(Cl)cc23)C1` [Example 33] belongs 100 to 1000 nM; to `CC(=O)N1C[C@@H](NC(=O)c2cnn(C3CCNCC3)c2C)C[C@@H](Nc2cc(C(F)(F)F)nc3ccc(Cl)cc23)C1` [Example 34], more than 1000 nM.
As for `CC(=O)N1C[C@@H](NC(=O)c2ccccc2F)C[C@@H](Nc2cc(C(F)(F)F)nc3ccc(Cl)cc23)C1` [Example 35], the EC50 lay within 100 to 1000 nM.
The same measure, in the same setting: to `CC(=O)N1C[C@@H](NC(=O)c2cccc(F)c2)C[C@@H](Nc2cc(C(F)(F)F)nc3ccc(Cl)cc23)C1` [Example 36] belongs less than 100 nM; to `CC(=O)N1C[C@@H](NC(=O)c2cc(F)cc(F)c2)C[C@@H](Nc2cc(C(F)(F)F)nc3ccc(Cl)cc23)C1` [Example 37], 100 to 1000 nM; to `CC(=O)N1C[C@@H](NC(=O)c2cnn(C(C)C)c2)C[C@@H](Nc2cc(C(F)(F)F)nc3ccc(Cl)cc23)C1` [Example 38], 100 to 1000 nM.
On the same count and under the same terms, with `CC(=O)N1C[C@@H](NC(=O)c2cnn(C)c2C)C[C@@H](Nc2cc(C(F)(F)F)nc3ccc(Cl)cc23)C1` [Example 39] the figure was 100 to 1000 nM.

A further assay concerns the target T2, MRGPRX2 LAD2 (Homo sapiens, UniProt Q96LB1).
T2 construct: host or cells: LAD2 human mast cells
T2 sequence (Q96LB1 1-330): T1 sequence (Q96LB1 1-330)
The experiment in a line: LAD2 β-hexosaminidase release assay (degranulation), Cortistatin-14 at EC75. The format is cell-based. Conditions: LAD2 cells; 1 hour compound incubation, Cortistatin-14 at EC75 for 30 minutes; percent degranulation (β-hexosaminidase). The method, then:
LAD2 cells obtained from the NIH were cultured in StemPro34 (Gibco) serum-free media supplemented with GlutaMax, penicillin and streptomycin, and 100 ng/mL SCF (Invitrogen). Cells were maintained in a 37° C., 5% CO2 humidified incubator at a concentration of 2-5E5 cells/mL, with hemidepletion once a week.
One day prior to the assay, cells were starved of SCF at a concentration of 2.3E5 cells/mL. On the day of the assay cells were washed twice in Tyrode's Buffer containing 0.04% BSA (assay buffer) and plated in a 96 well-v-bottom assay plate at 20,000 cells per well in 80 μL of assay buffer. Compounds were solubilized at 10 mM DMSO and added as a 10-fold overconcentrated 8-point curve in assay buffer in a volume of 10 μL using the JANUS liquid handler. Assay plates were incubated for 1 hour at 37° C. Cortistatin-14 was diluted in assay buffer to […] its predetermined EC75 and added to the assay plates in a volume of 10 μL. Assay plates were incubated at 37° C. for 30 minutes. After incubation, cells were pelleted and 50 μL of supernatant from each well was transferred to a 96 well flat bottom plate containing 100 μL of substrate solution (3.5 mg/mL p-Nitrophenyl-N-acetyl-β-D-glucosaminide (Sigma Aldrich) in 40 mM Citrate Buffer (Thermo Fisher)). The remaining cell pellets were lysed with 150 μL of 0.1% Triton-X-100 and mixed thoroughly. 50 μL of lysate was transferred to a 96-well flat bottom plate containing 100 μL of substrate solution. Plates with supernatants and lysates were incubated at 37° C. for 90 minutes prior to addition of 50 μL of 400 mM Glycine buffer (pH 10.7). The plates were read on a Perkin Elmer Envision plate reader at an Abs of 405 nanometers. Percent degranulation was calculated and Xlfit was used to calculate an EC50 value for each compound using a 4-parameter logistic curve fitting model. EC50 ranges are reported as follows: A<100 nM; B 0.1-1 μM; C>1 μM.
For the molecule `O=C(N[C@H]1C[C@@H](Nc2cc(C(F)(F)F)nc3ccc(Cl)cc23)CN(C(=O)C(F)F)C1)c1cn(C2CCC(F)(F)CC2)nc1Cl` [Example 121], the EC50 is less than 100 nM.
For `CC(C)(O)C(O)Cn1cc(C(=O)N[C@H]2C[C@@H](Nc3cc(C(F)(F)F)nc4ccc(Cl)cc34)CN(C(=O)C(F)F)C2)c(Cl)n1` (stereo partly shown) [Example 122], the EC50 is less than 100 nM.
Consider `C[C@@H](O)Cn1cc(C(=O)N[C@H]2C[C@@H](Nc3cc(C(F)(F)F)nc4ccc(Cl)cc34)CN(C(=O)C(F)F)C2)c(Cl)n1` [Example 123], for which the EC50 was less than 100 nM.
Turning to `C[C@H](O)Cn1cc(C(=O)N[C@H]2C[C@@H](Nc3cc(C(F)(F)F)nc4ccc(Cl)cc34)CN(C(=O)C(F)F)C2)c(Cl)n1` [Example 124], the EC50 is less than 100 nM.
`O=C(C(F)F)N1C[C@@H](Nc2nccc3ccccc23)C[C@@H](Nc2cc(C(F)(F)F)nc3ccc(Cl)cc23)C1` [Example 125]: the EC50 was less than 100 nM.
Regarding `C[C@@H]1CCCN1C(=O)N[C@H]1C[C@@H](Nc2cc(C(F)(F)F)nc3ccc(Cl)cc23)CN(C(=O)C(F)F)C1` [Example 126], the EC50 was less than 100 nM.
Same read-out and setting: with `O=C(N[C@H]1C[C@@H](Nc2cc(C(F)(F)F)nc3ccc(Cl)cc23)CN(C(=O)C(F)F)C1)N1CC[C@H](O)C1` [Example 127] the figure was less than 100 nM; with `O=C(N[C@H]1C[C@@H](Nc2cc(C(F)(F)F)nc3ccc(Cl)cc23)CN(C(=O)C(F)F)C1)N1CCCC2(CC2)C1` [Example 128], less than 100 nM.
Same read-out and setting: with `CC(=O)N1C[C@@H](NC(=O)N2CCc3cn(C)nc3C2)C[C@@H](Nc2cc(C(F)(F)F)nc3ccc(Cl)cc23)C1` [Example 129] the figure was less than 100 nM.
Molecule `CC(=O)N1C[C@@H](NC(=O)c2cn(CC(F)(F)F)nc2C2CC2)C[C@@H](Nc2c(F)c(C(F)(F)F)nc3cc(F)c(Cl)cc23)C1` [Example 130] showed an EC50 of less than 100 nM.
On the same count and under the same terms, with `CC(=O)N1C[C@@H](NC(=O)c2cn(CC(F)(F)F)nc2C2CC2)C[C@@H](Nc2cc(C(F)(F)F)nc3ccc(OC(F)(F)F)cc23)C1` [Example 132] the figure was less than 100 nM; with `CC(=O)N1C[C@@H](NC(=O)c2cn(CC(F)(F)F)nc2C2CC2)C[C@@H](Nc2cc(C(F)(F)F)nc3cc(F)c(Cl)cc23)C1` [Example 133], less than 100 nM.
For the molecule `CC(=O)N1C[C@@H](NC(=O)c2cn(CC(F)(F)F)nc2C2CC2)C[C@@H](Nc2c(C)c(C(F)(F)F)nc3ccc(Cl)cc23)C1` [Example 135], the EC50 is less than 100 nM.
`CC(=O)N1C[C@@H](NC(=O)c2cn(CC(F)(F)F)nc2C2CC2)C[C@@H](Nc2c(F)c(C(F)(F)F)nc3ccc(Cl)cc23)C1` [Example 136]: the EC50 was less than 100 nM.
Still for that read-out and setting: with `CC(=O)N1C[C@@H](NC(=O)c2cn(CC(F)(F)F)nc2C2CC2)C[C@@H](Nc2cc(C(F)(F)F)nc3c(F)cc(Cl)cc23)C1` [Example 139] the figure was less than 100 nM.
